Half-life and EC50 data for 14 compounds are collected here from patent US20230382940A1, “ANTIVIRAL COMPOUNDS AND METHODS OF MAKING AND USING THE SAME” (Gilead Sciences, Inc., priority 2022, published 2023).

Data set [1] can be described thus: GI S9 stability, human, Example Y. In kind it is in vitro ADME. As to conditions: pooled intestinal S9 fractions; human intestinal S9, 1.0 mg/mL protein, 2 μM compound, pH 7.4; read-out: GIS9 Human T½ (per Ex. Y). How it is done:
(§1) Example Y: GI S9 Stability Data
(§2) Stock solutions of test compounds in dimethyl sulfoxide (DMSO) having a final concentration of 10 mM were prepared and used in all experiments. Sekisui XenoTech (Kansas City, KS) provided pooled intestinal S9 fractions. All other chemicals were purchased from Sigma-Aldrich (St. Louis, MO) or VWR (West Chester, PA). Internal Standard/Quench (IS/Q) used to stop reactions was 100 nM labetalol in (by volume) methanol (10%) and acetonitrile (90%).
(§3) Stability in Intestinal S9 Fractions: Duplicate aliquots of test compound or positive control substrate were added to S9 stock diluted with phosphate buffered saline (137 mM NaCl, 2.7 mM KCl, 10 mM phosphate buffer), pH 7.4, to obtain a protein concentration of 1.0 mg/mL. The metabolic reactions were initiated by the addition of the substrates to the S9 reaction mixture to a final concentration of 2 μM. At 0, 10, 20, 30, 60 and 120 min, 25 μL aliquots of the reaction mixture were transferred to plates containing 225 μl of IS/Q solution. After quenching, the plates were centrifuged at 3000×g for 30 minutes. 150 μL aliquots of each supernatant were dried down then reconstituted with 300 μL water. Aliquots (10 μL) of the prepared samples were analyzed on a Thermo Q-Exactive mass spectrometer as described below.
(§4) Liquid Chromatography—Mass Spectrometry: Quantification of test compounds and control substrate was performed by analyte/internal standard peak area ratio (PAR) values measured on a Thermo Q-Exactive mass spectrometer coupled to a Dionex UltiMate 3000 HPLC with a Leap Technologies HTC PAL autosampler. The column used for analysis was a Waters Acquity BEH C18 (1.7 μm particle size, 2.1×50 mm). Mobile phase A consisted of 0.1% (v/v) formic acid in water. Mobile phase B consisted of 0.1% (v/v) formic acid in acetonitrile. Elution of analytes was achieved by a series of linear gradients varying the proportions of A and B. The mass spectrometer was calibrated on a weekly basis and mass tolerance of 5 ppm was used.
(§5) Metabolic stabilities in S9 fractions were determined by measuring the rates of disappearance of test compound and positive control substrate.
(§6) Data (% of substrate remaining) were plotted on a semi-log scale and fitted using an exponential decline model:
(§7) Ct=C0×e^−ln2/T1/2×t • Where Ct—% of substrate remaining at time=t; C0—% of substrate remaining at time=0; t—time; T1/2—half-life. • The Half-life (T1/2) is determined by the following equation: […]
(§8) Assuming a first-order reaction, the slope (k) is extrapolated from the aforementioned plotted data.

Data set [2] deals with Respiratory syncytial virus recombinant with luciferase (RSV-Luc5). The data set is described as follows: NHBE RSV-Luc5 384-well assay (EC50 RSVFLUC NHBE-384 v2), Example W. The format is cell-based. As to conditions: human respiratory syncytial virus, 72 h, read-out: EC50 RSV FLUC NHBE 384 V2 (per Ex. W). The text has this:
Example W: NHBE RSV-Luc5 384-Well Assay (EC50 RSVFLUC NHBE-384 v2)
Normal Human Bronchial Epithelial (NHBE) cells were purchased from Lonza (Walkersville, MD Cat #CC2540) and maintained in BEGM Bronchial Epithelial Cell Growth Medium BulletKit (Lonza CC-3170).
Cells were thawed, expanded, and were used for experiments at passage 2. Respiratory syncytial virus recombinant with luciferase (RSV-Luc5) (≥1×10^7 Infectious Units/mL (IU/mL) determined by TCID50) was purchased from Microbiologics (Saint Cloud, MN). Viral replication was determined in NHBE cells in the following manner.
Compounds are prepared in 100% DMSO in 384-well polypropylene plates (Greiner, Monroe, NC, Cat #784201) with 8 compounds per plate in grouped replicates of 4 at 10 serially diluted concentrations (1:3). The serially diluted compounds were transferred to low dead volume Echo plates (Labcyte, Sunnyvale, CA, Cat #LP-0200).
The test compounds were spotted to 384-well assay plates (Greiner, Monroe, NC, Cat #781091) at 200 nL per well using an Echo acoustic dispenser (Labcyte, Sunnyvale, CA). NHBE cells were harvested and suspended in BEGM Bronchial Epithelial Cell Growth Medium BulletKit and seeded to the pre-spotted assay plates at 5,000 cells per well in 30 μL. RSV-Luc5 virus was diluted in BEGM Bronchial Epithelial Cell Growth Medium BulletKit at 500,000 Infectious Units (IU) per mL and 10 μL per well was added to the assay plates containing cells and compounds, for an MOI of 1. The assay plates were incubated for 3 days at 37° C. and 5% CO2. At the end of incubation, One-Glo reagent (Promega, Madison, WI, Cat #E6120) was prepared. The assay plates and One-Glo reagent were equilibrated to room temperature for at least 15 minutes. 40 μL per well of One-Glo reagent was added and the plates were incubated at room temperature for 15 minutes before reading the luminescence signal on an EnVision multimode plate reader (Perkin Elmer, Waltham, MA). Remdesivir was used as positive control and DMSO was used as negative control. Values were normalized to the positive and negative controls (as 0% and 100% replication, respectively) and data was fitted using non-linear regression analysis by Gilead's dose response tool. The EC50 value for each compound was defined as the concentration reducing the viral replication by 50%.

The nature of data set [3]: GI S9 stability, rat, Example Y. In kind it is in vitro ADME. As to conditions: pooled intestinal S9 fractions; rat intestinal S9, 1.0 mg/mL protein, 2 μM compound, pH 7.4; read-out: GIS9 Rat T½ (per Ex. Y). How it is done:
as §1, §2, §3, §4, §5, §6, §7, §8

Each structure is given as a SMILES string.

For the compound `CCOC(=O)OC[C@@]1(C#N)O[C@@H](c2ccc3c(N)ncnn23)[C@H](O)[C@@H]1O` [Compound 22, ((2R,3S,4R,5S)-5-(4-aminopyrrolo[2,1-f][1,2,4]triazin-7-yl)-2-cyano-3,4-dihydroxytetrahydrofuran-2-yl)methyl ethyl carbonate], the half-life at 2 μM in data set [1] is 55 min; in data set [3] it was 14 min. Also, the EC50 in data set [2] is 6.62 µM.

Regarding `COC[C@@H](C)OC(=O)OC[C@@]1(C#N)O[C@@H](c2ccc3c(N)ncnn23)[C@H](O)[C@@H]1O` [Compound 38, ((2R,3S,4R,5S)-5-(4-aminopyrrolo[2,1-f][1,2,4]triazin-7-yl)-2-cyano-3,4-dihydroxytetrahydrofuran-2-yl)methyl ((R)-1-methoxypropan-2-yl) carbonate], the half-life at 2 μM in data set [1] was 292 min; in data set [3], 38 min. In addition, the EC50 in data set [2] worked out at 7.61 µM.

On to `CC[C@@H](C)OC(=O)OC[C@@]1(C#N)O[C@@H](c2ccc3c(N)ncnn23)[C@H](O)[C@@H]1O` [Compound 10, ((2R,3S,4R,5S)-5-(4-aminopyrrolo[2,1-f][1,2,4]triazin-7-yl)-2-cyano-3,4-dihydroxytetrahydrofuran-2-yl)methyl ((R)-sec-butyl) carbonate], for which the values for the half-life at 2 μM in data set [1] and in data set [3] were 104 min and 13 min, respectively. In addition, the EC50 in data set [2] is 11.4 µM.

Regarding `CCCOC(=O)OC[C@@]1(C#N)O[C@@H](c2ccc3c(N)ncnn23)[C@H](O)[C@@H]1O` [Compound 9, ((2R,3S,4R,5S)-5-(4-aminopyrrolo[2,1-f][1,2,4]triazin-7-yl)-2-cyano-3,4-dihydroxytetrahydrofuran-2-yl)methyl propyl carbonate], the half-life at 2 μM in data set [1] was 29 min; in data set [3] it was 8 min. For the same compound, in data set [2], the EC50 is 15.9 µM.

For `CC[C@H](C)COC(=O)OC[C@@]1(C#N)O[C@@H](c2ccc3c(N)ncnn23)[C@H](O)[C@@H]1O` [Compound 28, ((2R,3S,4R,5S)-5-(4-aminopyrrolo[2,1-f][1,2,4]triazin-7-yl)-2-cyano-3,4-dihydroxytetrahydrofuran-2-yl)methyl ((S)-2-methylbutyl) carbonate], the results for the half-life at 2 μM in data set [1] and in data set [3] were 18 min and 4 min, respectively. Further, the EC50 in data set [2] was found to be 9.4 µM.

With `CCCCCCOC(=O)OC[C@@]1(C#N)O[C@@H](c2ccc3c(N)ncnn23)[C@H](O)[C@@H]1O` [Compound 19, ((2R,3S,4R,5S)-5-(4-aminopyrrolo[2,1-f][1,2,4]triazin-7-yl)-2-cyano-3,4-dihydroxytetrahydrofuran-2-yl)methyl hexyl carbonate], the half-life at 2 μM worked out at 11 min in data set [1] and 2 min in data set [3]. In addition, in data set [2], the EC50 is 7.03 µM.

Turning to `N#C[C@]1(COC(=O)OC2CC3(CCC3)C2)O[C@@H](c2ccc3c(N)ncnn23)[C@H](O)[C@@H]1O` [Compound 36, ((2R,3S,4R,5S)-5-(4-aminopyrrolo[2,1-f][1,2,4]triazin-7-yl)-2-cyano-3,4-dihydroxytetrahydrofuran-2-yl)methyl spiro[3.3]heptan-2-yl carbonate], the half-life at 2 μM was 14 min in data set [1] and 3 min in data set [3]. Moreover, in data set [2], the EC50 came out at 8.42 µM.

On to `CC(C)CCOC(=O)OC[C@@]1(C#N)O[C@@H](c2ccc3c(N)ncnn23)[C@H](O)[C@@H]1O` [Compound 7, ((2R,3S,4R,5S)-5-(4-aminopyrrolo[2,1-f][1,2,4]triazin-7-yl)-2-cyano-3,4-dihydroxytetrahydrofuran-2-yl)methyl isopentyl carbonate], for which the figures for the half-life at 2 μM in data set [1] and in data set [3] were 20 min and 3 min, respectively. For the same compound, the EC50 in data set [2] stood at 13.9 µM.

With `N#C[C@]1(COC(=O)OC2CCCCC2)O[C@@H](c2ccc3c(N)ncnn23)[C@H](O)[C@@H]1O` [Compound 21, ((2R,3S,4R,5S)-5-(4-aminopyrrolo[2,1-f][1,2,4]triazin-7-yl)-2-cyano-3,4-dihydroxytetrahydrofuran-2-yl)methyl cyclohexyl carbonate], the half-life at 2 μM in data set [1] was found to be 44 min; in data set [3], 8 min. Further, the 50% effective concentration (EC50) in data set [2] was determined as 7 µM.

Consider `CC(C)(C)OC(=O)OC[C@@]1(C#N)O[C@@H](c2ccc3c(N)ncnn23)[C@H](O)[C@@H]1O` [Compound 13, ((2R,3S,4R,5S)-5-(4-aminopyrrolo[2,1-f][1,2,4]triazin-7-yl)-2-cyano-3,4-dihydroxytetrahydrofuran-2-yl)methyl tert-butyl carbonate], for which the half-life at 2 μM was 97 min in data set [1] and 74 min in data set [3]. Also, the half-maximal effective concentration (EC50) in data set [2] is 10.8 µM.

For the compound `COC(=O)OC[C@@]1(C#N)O[C@@H](c2ccc3c(N)ncnn23)[C@H](O)[C@@H]1O` [Compound 6, ((2R,3S,4R,5S)-5-(4-aminopyrrolo[2,1-f][1,2,4]triazin-7-yl)-2-cyano-3,4-dihydroxytetrahydrofuran-2-yl)methyl methyl carbonate], the half-life at 2 μM was determined as 201 min in data set [1] and 37 min in data set [3]. Besides, in data set [2], the EC50 came to 36.6 µM.

As to `N#C[C@]1(COC(=O)O[C@@H]2CCOC2)O[C@@H](c2ccc3c(N)ncnn23)[C@H](O)[C@@H]1O` [Compound 24, ((2R,3S,4R,5S)-5-(4-aminopyrrolo[2,1-f][1,2,4]triazin-7-yl)-2-cyano-3,4-dihydroxytetrahydrofuran-2-yl)methyl ((R)-tetrahydrofuran-3-yl) carbonate], the values for the half-life at 2 μM in data set [1] and in data set [3] were 178 min and 47 min, respectively. In data set [2], the EC50 is 7.33 µM.

In the case of `N#C[C@]1(COC(=O)OCc2ccccc2)O[C@@H](c2ccc3c(N)ncnn23)[C@H](O)[C@@H]1O` [Compound 29, ((2R,3S,4R,5S)-5-(4-aminopyrrolo[2,1-f][1,2,4]triazin-7-yl)-2-cyano-3,4-dihydroxytetrahydrofuran-2-yl)methyl benzyl carbonate], the figures for the half-life at 2 μM in data set [1] and in data set [3] were 15 min and 3 min, respectively. For the same compound, in data set [2], the EC50 came to 10.9 µM.

In the case of `CC(C)COC(=O)OC[C@@]1(C#N)O[C@@H](c2ccc3c(N)ncnn23)[C@H](O)[C@@H]1O` [Compound 8, ((2R,3S,4R,5S)-5-(4-aminopyrrolo[2,1-f][1,2,4]triazin-7-yl)-2-cyano-3,4-dihydroxytetrahydrofuran-2-yl)methyl isobutyl carbonate], the results for the half-life at 2 μM in data set [1] and in data set [3] were 29 min and 7 min, respectively. Further, the EC50 in data set [2] was determined as 12.5 µM.

One may read the EC50 as the concentration that produces a half-maximal response.
